The record followed here is patent US20250304700A1, “ANTI-BLOOD DENDRITIC CELL ANTIGEN 2 ANTIBODIES AND USES THEREOF” (Biogen MA Inc., priority 2012, published 2025).

The test system of experiment [1] is IFNα production from SLE sera stimulated pDCs. Description: IFNα production after stimulation with SLE sera. The format is cell-based, human. The following applies: sera from an SLE patient at final dilution 1/5. On the procedure:
The ability of anti-BDCA2 mAb to inhibit IFNα production following stimulation with a physiologically relevant ligand, namely, sera from patients with SLE was also tested. SLE sera are believed to induce type I IFN through complexes of anti-DNA autoantibodies and immunostimulatory hypomethylated DNA that stimulate TLR9. PBMCs were stimulated with sera from an SLE patient (provided by Dr. Gregg Silverman, NYU) and used at a final dilution of 1/5.

The test system of experiment [2] is TLR3-induced IFNα production by PBMC. In words: TLR3-induced IFNα production by PBMC. The following applies: 1 μM Poly I:C, BIIB059 10 μg/mL to 0.5 ng/ml. The format is cell-based, human. On the procedure:
This experiment was performed to determine whether other cell types triggered with different TLR ligands are still able to produce type I IFN even in the presence of BIIB059. […] PBMC from human healthy donors were stimulated with poly: IC, which is a TLR3 ligand that can potently induce type I IFN predominantly by monocytes. […] The plates were incubated overnight (18 hours) at 37° C. and 5% CO2. 200 μL of the supernatants were collected for evaluation of IFNα levels by ELISA.

For experiment [3], the system named is CD32a on the surface of pDCs. Description: CD32 surface expression on isolated pDCs. The format is cell-based, human. An excerpt: Treatment with effector competent isotype control had no effect on CD32 surface levels (FIG. 46).
CD40 is a cell surface protein expressed on pDCs. An anti-CD40 antibody with a fully functional Fc has the ability to engage CD40 and bind CD32 on the surface of pDCs.

Experiment [4] concerns TLR9-induced IFNα production. In words: Ex vivo whole blood assay (MxA bioassay) after in vivo dosing. The arrangement: species or system cynomolgus monkey. As to the method: FIG. 58 is a schematic representation of the Cynomolgus Monkey PK/PD Experimental Design. Nine Cynomolgus monkeys completed the intravenous (IV) dose study. […] At each bleeding time point, a whole blood assay was performed where whole blood from the cynomolgus monkeys was diluted 1:4 with complete RPMI 1640 and stimulated with CPG-A to a final concentration of 200 μg/ml in a 96 well round bottom tissue culture plate and incubated at 37° C. 5% CO2 for 18-20 hours. At the end of the culture, the stimulated whole blood was centrifuged to harvest serum. In the MxA bioassay, A549 cells were stimulated with the harvested serum for 19-20 hours at 37° C. 5% CO2 to induce MxA protein. After 20 hours, A549 cells were lysed and a sandwich ELISA was performed to detect concentrations of MxA protein. IFNα levels (units/mL) were back calculated from a standard curve generated by treating A549 cells with increasing doses of rIFNa.
Intravenous and subcutaneous dosing routes were evaluated for their ability to impact IFNα induction, which was measured using the MxA bioassay according to the experimental plan outlined in FIG. 58. TLR9 ligand (CpG-A) induced measurable quantities of IFNα in whole blood cultures across all time points and in all cynomolgus monkeys, while no IFNα was detected in the control PBS-treated cultures (data not shown).
A more comprehensive analysis of the data was performed using two-way mixed effects analysis of variance (ANOVA) to estimate the mean IFNα and the post versus pre differences for each dose group in the IV-study. Data during the first 24 hours following dosing were excluded due to an observed decrease in peripheral blood plasmacytoid dendritic cell percentages. Data for bleeds after day 31 post-dose were excluded from the analysis due to the return of BDCA2 expression observed at this time. For the vehicle dosed group, the geometric mean IFNα was 362 Units/mL (U/mL) pre-dose, and 314 U/mL post-dose; for the 1 mg/kg dosed group, the geometric mean was 399 U/mL pre-dose, and 237 U/mL post-dose; for the 10 mg/kg group, the geometric mean IFNα was 211 U/mL pre-dose, and 102 U/mL post-dose (FIG. 4). The post-pre differences in mean log 10 IFNα were-0.061 (p=0.511) for the Vehicle group, −0.226 (p=0.016) for the 1 mg/kg group, and −0.317 (p=0.004) for the 10 mg/kg group.
For the subcutaneously-dosed cynomolgus monkey cohort, a one-way analysis of variance (ANOVA) with random effects was used to estimate the mean IFNα and the post versus pre differences for the entire group. Data during the first 24 hours following dosing were excluded due to an observed decrease in peripheral blood plasmacytoid dendritic cell percentages. Data for bleeds after day 33 post-dose were excluded from the analysis due to the recovery of BDCA2 expression observed at this time. For the subcutaneously dosed group, the geometric mean IFNα was 1243 U/mL pre-dose and 812 U/mL post-dose, yielding a post/pre ratio of 65%. The post-pre difference in mean log 10 was estimated to be −0.185 (p=0.059) which, after anti-log 10 transformation, corresponds to 10^(−0.185)=65% of the pre-dose geometric mean; the 95% CI of this effect is 41%-102% (FIG. 61).

Experiment [5] deals with Sm/RNP immune complexes-induced cytokines by pDCs. In words: Cytokines from Sm/RNP immune complex stimulated purified pDCs. The format is cell-based, human. The following applies: 10 μg/mL BIIB059, 18 hours. On the procedure:
Specifically, Sm/RNP immune complexes (IC) were pre-formed by mixing sm-RNP from calf thymus and anti-RNP antibodies purified form sera of SLE patients for 1 h in serum-free medium. pDCs from human healthy donors were isolated using a two-step magnetic bead separation procedure (MACS kit, Miltenyi Biotec). […] The plates containing pDCs were incubated for 18 hours at 37° C. and supernatants collected for use in ELISA or multiplex assays to measure concentrations of inflammatory cytokines and chemokines.

“24F4S: hu24F4 H4/L1 with C95S light chain; differs from BIIB059 by 1 amino acid residue”: the IFNα production entry in experiment [1] is “completely abrogated”.
Regarding “BIIB059: humanized IgG1 anti-BDCA2 antibody, mature heavy chain SEQ ID NO: 4 and mature light chain SEQ ID NO: 3”, the “TLR3-induced IFNα production” value in experiment [2] is given as “did not impact”. In addition, in experiment [3] (10 μg/mL, 1 hour at 4° C.), the “CD32 MFI” value is “did not decrease the CD32 MFI”. In addition, the “CD32 on the cell surface of pDCs” value in experiment [3] (16 hours at 37° C.) is “able to induce the down-modulation of CD32”. Besides, in experiment [4] (0.2 mg/kg SC), the “IFNα post-dose, of the pre-dose geometric mean” value is 65% and the “post-pre difference in mean log 10 IFNα” value was −0.185. In experiment [4] (0.2 mg/kg SC, up to day 33), the “geometric mean IFNα post-dose” value was 812 U/mL. In addition, in experiment [4] (1 mg/kg IV), the “IFN concentration post-dose compared to pre-dose” value was 59% and the “post-pre difference in mean log 10 IFNα” value is −0.226. For the same substance, in experiment [4] (1 mg/kg IV, up to day 31), the “geometric mean IFNα post-dose” value stood at 237 U/mL. Besides, in experiment [4] (10 mg/kg IV), the “IFN concentration post-dose compared to pre-dose” value was found to be 48%, the “geometric mean IFNα post-dose” value is listed as 102 U/mL and the “post-pre difference in mean log 10 IFNα” value was −0.317. Besides, the “TLR9-induced IFN production ex vivo, in words” value in experiment [4] (dosed in vivo, IV and SC) was “trend towards inhibited TLR9-induced IFN production”. Further, in experiment [5], the “Sm/RNP immune complexes-induced IFNα, TNFα and IL-6” value is “potently inhibited”; the “chemokines induced by Sm/RNP immune complexes (CCL3, CCL4)” value is “also inhibited”.
